# Earlier results as cited in patent US20240401031A1, “Platform Using iPSC-Derived Cardiomyocytes Carrying Gene Variants as Models of Cardiac Disease and Drug-Response” (SRI INTERNATIONAL, priority 2021, published 2024).
# Conditions: source CredibleMeds
row,SMILES,Risk (Torsade de Pointes)
1,Cl.Cl.OCCN1CCN(CCC=C2c3ccccc3Sc3ccc(C(F)(F)F)cc32)CC1 (mixture of isomers) [Flupentixol],(PR)
2,C[C@]12CC[C@H](O)CC1=CC[C@@H]1[C@@H]2CC[C@]2(C)C(c3cccnc3)=CC[C@@H]12 [Abiraterone],(CR)
3,COc1cc2nc(N(C)CCCNC(=O)C3CCCO3)nc(N)c2cc1OC (centres unmarked) [Alfuzosin],(PR)
4,CCCCc1oc2ccccc2c1C(=O)c1cc(I)c(OCCN(CC)CC)c(I)c1 [Amiodarone],(KR)
5,CCN1CCCC1CNC(=O)c1cc(S(=O)(=O)CC)c(N)cc1OC (centres unmarked) [Amisulpride],(CR)
6,CN(C)CCC=C1c2ccccc2CCc2ccccc21 [Amitriptyline],(CR)
7,CC(N)Cc1ccccc1 (centres unmarked) [Amphetamine],(SR)
8,O=C1CN2Cc3c(ccc(Cl)c3Cl)N=C2N1 [Anagrelide],(KR)
9,CNC(=O)c1ccc(N2C(=S)N(c3cnc(C#N)c(C(F)(F)F)c3)C(=O)C23CCC3)cc1F [Apalutamide],(PR)
10,CN1CCc2cccc3c2[C@H]1Cc1ccc(O)c(O)c1-3 [Apomorphine],(PR)
11,O=C1CCc2ccc(OCCCCN3CCN(c4cccc(Cl)c4Cl)CC3)cc2N1 [Aripiprazole],(PR)
12,[As] [Arsenic],(KR)
13,CN1CC2c3ccccc3Oc3ccc(Cl)cc3C2C1 (centres unmarked) [Asenapine],(PR)
14,COc1ccc(CCN2CCC(Nc3nc4ccccc4n3Cc3ccc(F)cc3)CC2)cc1 [Astemizole],(KR)
15,COC(=O)N[C@H](C(=O)N[C@@H](Cc1ccccc1)[C@@H](O)CN(Cc1ccc(-c2ccccn2)cc1)NC(=O)[C@@H](NC(=O)OC)C(C)(C)C)C(C)(C)C [Atazanavir],(CR)
16,CNCC[C@@H](Oc1ccccc1C)c1ccccc1 [Atomoxetine],(PR)
17,CC[C@H]1OC(=O)[C@H](C)[C@@H](O[C@H]2C[C@@](C)(OC)[C@@H](O)[C@H](C)O2)[C@H](C)[C@@H](O[C@@H]2O[C@H](C)C[C@H](N(C)C)[C@H]2O)[C@](C)(O)C[C@@H](C)CN(C)[C@H](C)[C@@H](O)[C@]1(C)O [Azithromycin],(KR)
18,Cn1c(CCCC(=O)O)nc2cc(N(CCCl)CCCl)ccc21 [Bendamustine],(PR)
19,NS(=O)(=O)c1cc2c(cc1C(F)(F)F)NC(Cc1ccccc1)NS2(=O)=O (centres unmarked) [Bendroflumethiazide],(CR)
20,C[C@@H](Cc1ccccc1)N(C)Cc1ccccc1 [Benzphetamine],(SR)
21,CC(C)COCC(CN(Cc1ccccc1)c1ccccc1)N1CCCC1 (centres unmarked) [Bepridil],(KR)
22,COc1ccc(NC(=O)c2ccc(C(=N)N(C)C)cc2)c(C(=O)Nc2ccc(Cl)cn2)c1 [Betrixaban],(PR)
23,CC(O)(CS(=O)(=O)c1ccc(F)cc1)C(=O)Nc1ccc(C#N)c(C(F)(F)F)c1 (centres unmarked) [Bicalutamide],(PR)
24,CC(C)C[C@H](NC(=O)[C@H](Cc1ccccc1)NC(=O)c1cnccn1)B(O)O [Bortezomib],(PR)
25,COc1cc(Nc2c(C#N)cnc3cc(OCCCN4CCN(C)CC4)c(OC)cc23)c(Cl)cc1Cl [Bosutinib],(PR)
26,COc1cc2nccc(Oc3ccc(NC(=O)C4(C(=O)Nc5ccc(F)cc5)CC4)cc3)c2cc1OC [Cabozantinib],(PR)

row,SMILES,Risk (Torsade de Pointes)
1,CCCCCOC(=O)Nc1nc(=O)n([C@@H]2O[C@H](C)[C@@H](O)[C@H]2O)cc1F [Capecitabine],(PR)
2,Cc1cc(Nc2ncc(Cl)c(Nc3ccccc3S(=O)(=O)C(C)C)n2)c(OC(C)C)cc1C1CCNCC1 [Ceritinib],(PR)
3,[Cs] [Cesium],(KR)
4,CCN(CC)CCCC(C)Nc1ccnc2cc(Cl)ccc12 (centres unmarked) [Chloroquine],(KR)
5,CN(C)CCCN1c2ccccc2Sc2ccc(Cl)cc21 [Chlorpromazine],(KR)
6,CN(C)CC/C=C1/c2ccccc2Sc2ccc(Cl)cc21 [Chlorprothixene],(KR)
7,O=C1CCc2cc(OCCCCc3nnnn3C3CCCCC3)ccc2N1 [Cilostazol],(KR)
8,CN/C(=N/CCSCc1nc[nH]c1C)NC#N [Cimetidine],(CR)
9,O=C(O)c1cn(C2CC2)c2cc(N3CCNCC3)c(F)cc2c1=O [Ciprofloxacin],(KR)
10,COc1cc(N)c(Cl)cc1C(=O)NC1CCN(CCCOc2ccc(F)cc2)CC1OC (centres unmarked) [Cisapride],(KR)
11,CN(C)CCCC1(c2ccc(F)cc2)OCc2cc(C#N)ccc21 (centres unmarked) [Citalopram],(KR)
12,CC[C@H]1OC(=O)[C@H](C)[C@@H](O[C@H]2C[C@@](C)(OC)[C@@H](O)[C@H](C)O2)[C@H](C)[C@@H](O[C@@H]2O[C@H](C)C[C@H](N(C)C)[C@H]2O)[C@](C)(OC)C[C@@H](C)C(=O)[C@H](C)[C@@H](O)[C@]1(C)O [Clarithromycin],(KR)
13,CC(C)/N=c1\cc2n(-c3ccc(Cl)cc3)c3ccccc3nc-2cc1Nc1ccc(Cl)cc1 [Clofazimine],(PR)
14,CN1CCN(C2=Nc3ccccc3Sc3ccc(Cl)cc32)CC1 [Clotiapine],(PR)
15,O=C(c1ccc(F)c(F)c1Nc1ccc(I)cc1F)N1CC(O)([C@@H]2CCCCN2)C1 [Cobimetinib],(PR)
16,COC(=O)[C@H]1[C@@H](OC(=O)c2ccccc2)C[C@@H]2CC[C@H]1N2C [Cocaine],(KR)
17,C[C@@H](Oc1cc(-c2cnn(C3CCNCC3)c2)cnc1N)c1c(Cl)ccc(F)c1Cl [Crizotinib],(PR)
18,CC(CN(C)C)CN1c2ccccc2Sc2ccc(C#N)cc21 (centres unmarked) [Cyamemazine],(PR)
19,CC(C)(C)c1nc(-c2cccc(NS(=O)(=O)c3c(F)cccc3F)c2F)c(-c2ccnc(N)n2)s1 [Dabrafenib],(PR)
20,Cc1nc(Nc2ncc(C(=O)Nc3c(C)cccc3Cl)s2)cc(N2CCN(CCO)CC2)n1 [Dasatinib],(PR)
21,C[C@]1(COc2ccc(N3CCC(Oc4ccc(OC(F)(F)F)cc4)CC3)cc2)Cn2cc([N+](=O)[O-])nc2O1 [Delamanid],(PR)
22,CNCCCN1c2ccccc2CCc2ccccc21 [Desipramine],(PR)
23,[2H]C([2H])([2H])Oc1cc2c(cc1OC([2H])([2H])[2H])C1CC(=O)C(CC(C)C)CN1CC2 (centres unmarked) [Deutetrabenazine],(PR)
24,Cc1cccc([C@H](C)c2cnc[nH]2)c1C [Dexmedetomidine],(PR)
25,C[C@H](N)Cc1ccccc1 [Dextroamphetamine],(SR)
26,CC(C)N(CCC(C(N)=O)(c1ccccc1)c1ccccn1)C(C)C (centres unmarked) [Disopyramide],(KR)

row,SMILES,Risk (Torsade de Pointes)
1,CC(CCc1ccc(O)cc1)NCCc1ccc(O)c(O)c1 (centres unmarked) [Dobutamine],(SR)
2,CN(CCOc1ccc(NS(C)(=O)=O)cc1)CCc1ccc(NS(C)(=O)=O)cc1 [Dofetilide],(KR)
3,NCCc1ccc(O)c(O)c1 [Dopamine],(SR)
4,CN(C)CCC=C1c2ccccc2COc2ccccc21 [Doxepin],(CR)
5,CCCCc1oc2ccc(NS(C)(=O)=O)cc2c1C(=O)c1ccc(OCCCN(CCCC)CCCC)cc1 [Dronedarone],(KR)
6,O=C(CCCN1CC=C(n2c(=O)[nH]c3ccccc32)CC1)c1ccc(F)cc1 [Droperidol],(KR)
7,N[C@H](C(=O)O)[C@H](O)c1ccc(O)c(O)c1 [Droxidopa],(SR)
8,O=C1Nc2ccc(Cl)cc2[C@@](C#CC2CC2)(C(F)(F)F)O1 [Efavirenz],(PR)
9,CCCCCCCC(=O)N[C@H](CN1CCCC1)[C@H](O)c1ccc2c(c1)OCCO2 [Eliglustat],(PR)
10,COC(=O)N[C@@H](C)CNc1nccc(-c2cn(C(C)C)nc2-c2cc(Cl)cc(NS(C)(=O)=O)c2F)n1 [Encorafenib],(PR)
11,CCc1ccc(C(=O)C(C)CN2CCCCC2)cc1 (centres unmarked) [Eperisone],(CR)
12,CNC[C@H](O)c1ccc(O)c(O)c1 [Epinephrine],(SR)
13,COc1cccc2c1C(=O)c1c(O)c3c(c(O)c1C2=O)C[C@@](O)(C(=O)CO)C[C@@H]3O[C@H]1C[C@H](N)[C@@H](O)[C@H](C)O1 [Epirubicin],(PR)
14,C=C1C[C@@H]2CC[C@@]34C[C@H]5O[C@H]6[C@@H](O3)[C@H]3O[C@H](CC[C@@H]3O[C@H]6[C@H]5O4)CC(=O)C[C@@H]3[C@@H](OC)[C@@H](C[C@H](O)CN)O[C@H]3C[C@H]3O[C@@H](CC[C@@H]1O2)C[C@@H](C)C3=C [Eribulin],(PR)
15,CN(C)CCC[C@@]1(c2ccc(F)cc2)OCc2cc(C#N)ccc21 [Escitalopram],(KR)
16,COc1ccc2nc([S@@+]([O-])Cc3ncc(C)c(OC)c3C)[nH]c2c1 [Esomeprazole],(CR)
17,NC(N)=Nc1nc(CSCCC(N)=NS(N)(=O)=O)cs1 [Famotidine],(CR)
18,NC(=O)OCC(COC(N)=O)c1ccccc1 [Felbamate],(PR)
19,CCNC(C)Cc1cccc(C(F)(F)F)c1 (centres unmarked) [Fenfluramine],(SR)
20,CCCCCCCCc1ccc(CCC(N)(CO)CO)cc1 [Fingolimod],(PR)
21,O=c1[nH]cc(F)c(=O)[nH]1 [Fluorouracil],(PR)
22,CNCCC(Oc1ccc(C(F)(F)F)cc1)c1ccccc1 (centres unmarked) [Fluoxetine],(CR)
23,C[C@@H]1C[C@H]2[C@@H]3C[C@H](F)C4=CC(=O)C=C[C@]4(C)[C@@]3(F)[C@@H](O)C[C@]2(C)[C@@]1(O)C(=O)SCF [Fluticasone],(SR)
24,NS(=O)(=O)c1cc(C(=O)O)c(NCc2ccco2)cc1Cl [Furosemide],(CR)
25,C[C@H]1NCc2cc(-c3ccc4c(=O)c(C(=O)O)cn(C5CC5)c4c3OC(F)F)ccc21 [Garenoxacin],(CR)
